{"source": "patent US10364238B2", "about": "“N-((het) arylmethyl)-heteroaryl-carboxamides compounds as plasma kallikrein inhibitors” (KALVISTA PHARMACEUTICALS LIMITED, priority 2014, dated 2019)", "assay_type_in_all_cases": "biochemical", "key": {"[1]": {"biological_target": "Human plasma kallikrein (Homo sapiens (Human), UniProt P03952)", "sequence (P03952 391-638)": "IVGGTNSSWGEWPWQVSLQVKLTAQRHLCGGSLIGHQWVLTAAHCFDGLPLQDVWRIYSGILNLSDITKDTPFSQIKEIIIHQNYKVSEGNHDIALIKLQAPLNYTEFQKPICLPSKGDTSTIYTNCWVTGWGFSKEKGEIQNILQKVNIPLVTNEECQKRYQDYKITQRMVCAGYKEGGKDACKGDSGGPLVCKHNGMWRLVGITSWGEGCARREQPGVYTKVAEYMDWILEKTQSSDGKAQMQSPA", "sequence (P03952 20-390 partner)": "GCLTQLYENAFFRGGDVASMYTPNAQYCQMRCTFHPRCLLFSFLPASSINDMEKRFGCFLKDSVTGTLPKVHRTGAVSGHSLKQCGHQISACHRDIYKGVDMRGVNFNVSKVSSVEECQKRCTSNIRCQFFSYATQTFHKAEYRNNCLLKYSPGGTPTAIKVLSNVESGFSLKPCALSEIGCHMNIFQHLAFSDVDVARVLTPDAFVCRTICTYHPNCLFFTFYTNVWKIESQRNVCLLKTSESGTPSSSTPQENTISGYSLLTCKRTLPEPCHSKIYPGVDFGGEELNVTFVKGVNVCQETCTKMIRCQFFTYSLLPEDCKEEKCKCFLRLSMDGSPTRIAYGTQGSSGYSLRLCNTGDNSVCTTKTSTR", "assay": "Determination of the IC50 for plasma kallikrein", "conditions": "25° C., fluorogenic substrate H-DPro-Phe-Arg-AFC; read-out: IC50 (human PKaI)", "procedure": "Determination of the IC50 for Plasma Kallikrein\n(§1) Human plasma kallikrein (Protogen) was incubated at 25° C. with the fluorogenic substrate H-DPro-Phe-Arg-AFC and various concentrations of the test compound. Residual enzyme activity (initial rate of reaction) was determined by measuring the change in […] at 410 nm and the IC50 value for the test compound was determined."}, "[2]": {"biological_target": "Human KLK1 (Homo sapiens (Human), UniProt P06870)", "sequence (P06870 25-262)": "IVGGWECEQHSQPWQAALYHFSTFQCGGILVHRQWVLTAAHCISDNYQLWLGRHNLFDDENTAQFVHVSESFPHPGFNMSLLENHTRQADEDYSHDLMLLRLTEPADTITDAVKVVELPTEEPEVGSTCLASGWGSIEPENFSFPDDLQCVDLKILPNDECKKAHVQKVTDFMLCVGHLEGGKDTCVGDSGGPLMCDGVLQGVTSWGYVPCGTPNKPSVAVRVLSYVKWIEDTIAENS", "assay": "Determination of the IC50 for KLK1", "conditions": "25° C., fluorogenic substrate H-DVal-Leu-Arg-AFC", "procedure": "Determination of the IC50 for KLK1\nas §1, with “KLK1 (Callbiochem)” for “plasma kallikrein (Protogen)”, “H-DVal-Leu-Arg-AFC” for “H-DPro-Phe-Arg-AFC”"}, "[3]": {"biological_target": "Human FXIa (Homo sapiens (Human), UniProt P03951)", "sequence (P03951 388-625)": "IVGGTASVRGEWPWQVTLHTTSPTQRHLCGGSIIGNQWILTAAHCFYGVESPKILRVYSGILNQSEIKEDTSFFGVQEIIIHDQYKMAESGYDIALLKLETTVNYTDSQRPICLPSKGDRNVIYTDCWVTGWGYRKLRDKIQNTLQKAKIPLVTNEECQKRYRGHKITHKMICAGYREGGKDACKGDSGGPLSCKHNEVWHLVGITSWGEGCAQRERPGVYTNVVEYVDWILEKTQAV", "sequence (P03951 19-387 partner)": "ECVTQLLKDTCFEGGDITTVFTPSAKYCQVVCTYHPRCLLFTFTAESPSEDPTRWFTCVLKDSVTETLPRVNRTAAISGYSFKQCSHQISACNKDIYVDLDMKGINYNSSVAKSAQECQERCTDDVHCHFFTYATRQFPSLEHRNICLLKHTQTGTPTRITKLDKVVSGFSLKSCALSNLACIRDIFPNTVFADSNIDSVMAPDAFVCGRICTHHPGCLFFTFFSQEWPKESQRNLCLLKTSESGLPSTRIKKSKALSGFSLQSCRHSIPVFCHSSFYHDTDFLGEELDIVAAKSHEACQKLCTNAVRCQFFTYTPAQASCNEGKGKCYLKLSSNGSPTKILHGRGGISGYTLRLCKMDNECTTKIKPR", "assay": "Determination of the % inhibition for FXIa", "conditions": "40 μM test compound, 25° C., substrate Z-Gly-Pro-Arg-AFC", "procedure": "Determination of the % Inhibition for FXIa\nHuman FXIa (Enzyme Research Laboratories) was incubated at 25° C. with the fluorogenic substrate Z-Gly-Pro-Arg-AFC and 40 μM of the test compound. Residual enzyme activity (initial rate of reaction) was determined by measuring the change in […]."}}, "data": [{"smiles": "COCc1nn(Cc2ccc(Cn3ccccc3=O)cc2)cc1C(=O)NCc1cc(OC)cc(OC)c1", "note": "[Example 1, N-(3,5-Dimethoxybenzyl)-3-(methoxymethyl)-1-(4-((2-oxopyridin-1(2H)-yl)methyl)benzyl)-1H-pyrazole-4-carboxamide]", "values": [{"measurement": "IC50", "setting": "[1]", "value": 698, "unit": "nM"}, {"measurement": "IC50", "setting": "[2]", "value": "> 10000", "unit": "nM"}, {"measurement": "inhibition at 40 µM", "setting": "[3]", "value": 0, "unit": "%"}]}, {"smiles": "COCc1nn(Cc2cnc3cc(Cl)ccc3c2)cc1C(=O)NCc1cccc(OC)c1F", "note": "[Example 3, 1-(7-Chloro-quinolin-3-ylmethyl)-3-methoxymethyl-1H-pyrazole-4-carboxylic acid 2-fluoro-3-methoxy-benzylamide]", "values": [{"measurement": "IC50", "setting": "[1]", "value": 2580, "unit": "nM"}, {"measurement": "IC50", "setting": "[2]", "value": "> 10000", "unit": "nM"}, {"measurement": "inhibition at 40 µM", "setting": "[3]", "value": 3, "unit": "%"}]}, {"smiles": "CCOc1cccc(CNC(=O)c2cn(Cc3ccc(Cn4cc(C)cn4)cc3)nc2C(F)(F)F)c1", "note": "[Example 6, N-[(3-ethoxyphenyl)methyl]-1-({4-[(4-methylpyrazol-1-yl)methyl]phenyl}methyl)-3-(trifluoromethyl)pyrazole-4-carboxamide]", "values": [{"measurement": "inhibition at 40 µM", "setting": "[3]", "value": 0, "unit": "%"}]}, {"smiles": "COCc1nn(Cc2ccc(Cn3ccccc3=O)cc2)cc1C(=O)NCc1cnccc1C(F)(F)F", "note": "[Example 31, 3-(methoxymethyl)-1-({4-[(2-oxopyridin-1-yl)methyl]phenyl}methyl)-N-{[4-(trifluoromethyl)pyridin-3-yl]methyl}pyrazole-4-carboxamide]", "values": [{"measurement": "IC50", "setting": "[1]", "value": 392, "unit": "nM"}, {"measurement": "IC50", "setting": "[2]", "value": "> 10000", "unit": "nM"}]}, {"smiles": "COCc1nn(Cc2ccc(Cn3ccccc3=O)cc2)cc1C(=O)NCc1ccc(C)nc1", "note": "[Example 32, 3-(methoxymethyl)-N-[(6-methylpyridin-3-yl)methyl]-1-({4-[(2-oxopyridin-1-yl)methyl]phenyl}methyl)pyrazole-4-carboxamide]", "values": [{"measurement": "IC50", "setting": "[1]", "value": 7870, "unit": "nM"}, {"measurement": "IC50", "setting": "[2]", "value": "> 10000", "unit": "nM"}]}, {"smiles": "COCc1nn(Cc2ccc(Cn3ccccc3=O)cc2)cc1C(=O)NCc1cccnc1C(F)(F)F", "note": "[Example 36, 3-(methoxymethyl)-1-({4-[(2-oxopyridin-1-yl)methyl]phenyl}methyl)-N-{[2-(trifluoromethyl)pyridin-3-yl]methyl}pyrazole-4-carboxamide]", "values": [{"measurement": "IC50", "setting": "[1]", "value": 4170, "unit": "nM"}, {"measurement": "IC50", "setting": "[2]", "value": "> 10000", "unit": "nM"}, {"measurement": "inhibition at 40 µM", "setting": "[3]", "value": 0, "unit": "%"}]}, {"smiles": "COCc1nn(Cc2ccc(Cn3ccccc3=O)cc2)cc1C(=O)NCc1cnccc1C(F)(F)F", "note": "[Example 37, 3-(methoxymethyl)-1-({4-[(2-oxopyridin-1-yl)methyl]phenyl}methyl)-N-{[4-(trifluoromethyl)pyridin-3-yl]methyl}pyrazole-4-carboxamide]", "values": [{"measurement": "inhibition at 40 µM", "setting": "[3]", "value": 0, "unit": "%"}]}, {"smiles": "COCc1nn(Cc2ccc(Cn3ccccc3=O)cc2)cc1C(=O)NCc1ccc(C)nc1", "note": "[Example 39, 3-(methoxymethyl)-N-[(6-methylpyridin-3-yl)methyl]-1-({4-[(2-oxopyridin-1-yl)methyl]phenyl}methyl)pyrazole-4-carboxamide]", "values": [{"measurement": "inhibition at 40 µM", "setting": "[3]", "value": 0, "unit": "%"}]}, {"smiles": "COCc1nn(Cc2ccc(Cn3ccccc3=O)cc2)cc1C(=O)NCc1cccc(OC)n1", "note": "[Example 40, 3-(methoxymethyl)-N-[(6-methoxypyridin-2-yl)methyl]-1-({4-[(2-oxopyridin-1-yl)methyl]phenyl}methyl)pyrazole-4-carboxamide]", "values": [{"measurement": "IC50", "setting": "[1]", "value": 3700, "unit": "nM"}, {"measurement": "IC50", "setting": "[2]", "value": "> 10000", "unit": "nM"}, {"measurement": "inhibition at 40 µM", "setting": "[3]", "value": 1, "unit": "%"}]}, {"smiles": "COCc1nn(Cc2ccc(Cn3ccccc3=O)cc2)cc1C(=O)NCc1nc(OC)ccc1F", "note": "[Example 42, N-[(3-fluoro-6-methoxypyridin-2-yl)methyl]-3-(methoxymethyl)-1-({4-[(2-oxopyridin-1-yl)methyl]phenyl}methyl)pyrazole-4-carboxamide]", "values": [{"measurement": "IC50", "setting": "[1]", "value": 831, "unit": "nM"}, {"measurement": "IC50", "setting": "[2]", "value": "> 10000", "unit": "nM"}, {"measurement": "inhibition at 40 µM", "setting": "[3]", "value": 1, "unit": "%"}]}, {"smiles": "COCc1nn(Cc2ccc(Cn3ccccc3=O)cc2)cc1C(=O)NCc1csc2ccc(Cl)cc12", "note": "[Example 45, N-[(5-chloro-1-benzothiophen-3-yl)methyl]-3-(methoxymethyl)-1-({4-[(2-oxopyridin-1-yl)methyl]phenyl}methyl)pyrazole-4-carboxamide]", "values": [{"measurement": "IC50", "setting": "[1]", "value": 144, "unit": "nM"}, {"measurement": "IC50", "setting": "[2]", "value": "> 10000", "unit": "nM"}]}, {"smiles": "COCc1nn(Cc2ccc(N3CCCC3)nc2)cc1C(=O)NCc1csc2ccc(Cl)cc12", "note": "[Example 46, N-[(5-chloro-1-benzothiophen-3-yl)methyl]-3-(methoxymethyl)-1-{[6-(pyrrolidin-1-yl)pyridin-3-yl]methyl}pyrazole-4-carboxamide]", "values": [{"measurement": "IC50", "setting": "[1]", "value": 2400, "unit": "nM"}, {"measurement": "IC50", "setting": "[2]", "value": "> 10000", "unit": "nM"}]}, {"smiles": "COCc1nn(Cc2ccc(Cn3cc(C)cn3)cc2)cc1C(=O)NCc1csc2ccc(Cl)cc12", "note": "[Example 47, N-[(5-chloro-1-benzothiophen-3-yl)methyl]-3-(methoxymethyl)-1-({4-[(4-methylpyrazol-1-yl)methyl]phenyl}methyl)pyrazole-4-carboxamide]", "values": [{"measurement": "IC50", "setting": "[1]", "value": 753, "unit": "nM"}, {"measurement": "IC50", "setting": "[2]", "value": "> 10000", "unit": "nM"}]}, {"smiles": "NC(=O)c1ccccc1CNC(=O)c1cn(Cc2ccc(Cn3ccccc3=O)cc2)nc1C1CC1", "note": "[Example 48, N-[(2-carbamoylphenyl)methyl]-3-cyclopropyl-1-({4-[(2-oxopyridin-1-yl)methyl]phenyl}methyl)pyrazole-4-carboxamide]", "values": [{"measurement": "IC50", "setting": "[1]", "value": 647, "unit": "nM"}, {"measurement": "IC50", "setting": "[2]", "value": "> 10000", "unit": "nM"}, {"measurement": "inhibition at 40 µM", "setting": "[3]", "value": 2, "unit": "%"}]}, {"smiles": "NC(=O)c1ccc(CNC(=O)c2cn(Cc3ccc(Cn4ccccc4=O)cc3)nc2C2CC2)cc1", "note": "[Example 50, N-[(4-carbamoylphenyl)methyl]-3-cyclopropyl-1-({4-[(2-oxopyridin-1-yl)methyl]phenyl}methyl)pyrazole-4-carboxamide]", "values": [{"measurement": "IC50", "setting": "[1]", "value": 1800, "unit": "nM"}, {"measurement": "IC50", "setting": "[2]", "value": "> 10000", "unit": "nM"}]}, {"smiles": "COCc1nn(Cc2ccc(Cn3ccccc3=O)cc2)cc1C(=O)NCc1c(F)cccc1C(F)F", "note": "[Example 80, N-{[2-(difluoromethyl)-6-fluorophenyl]methyl}-3-(methoxymethyl)-1-({4-[(2-oxopyridin-1-yl)methyl]phenyl}methyl)pyrazole-4-carboxamide]", "values": [{"measurement": "IC50", "setting": "[1]", "value": 20.4, "unit": "nM"}, {"measurement": "IC50", "setting": "[2]", "value": "> 40000", "unit": "nM"}]}, {"smiles": "COCc1nn(Cc2ccc(Cn3ccccc3=O)cc2)cc1C(=O)NCc1c(F)ccc(OC)c1C(F)F", "note": "[Example 83, N-{[2-(difluoromethyl)-6-fluoro-3-methoxyphenyl]methyl}-3-(methoxymethyl)-1-({4-[(2-oxopyridin-1-yl)methyl]phenyl}methyl)pyrazole-4-carboxamide]", "values": [{"measurement": "inhibition at 40 µM", "setting": "[3]", "value": 14, "unit": "%"}]}, {"smiles": "COCc1nn(Cc2ccc(Cn3ccccc3=O)cc2)cc1C(=O)NCc1cc(OC)ccc1C(N)=O", "note": "[Example 86, N-[(2-carbamoyl-5-methoxyphenyl)methyl]-3-(methoxymethyl)-1-({4-[(2-oxopyridin-1-yl)methyl]phenyl}methyl)pyrazole-4-carboxamide]", "values": [{"measurement": "IC50", "setting": "[1]", "value": 8.7, "unit": "nM"}, {"measurement": "IC50", "setting": "[2]", "value": "> 40000", "unit": "nM"}]}, {"smiles": "COCc1nn(Cc2ccc(Cn3ccccc3=O)cc2)cc1C(=O)NCc1c(Cl)ccc(OC)c1F", "note": "[Example 99, N-[(6-chloro-2-fluoro-3-methoxyphenyl)methyl]-3-(methoxymethyl)-1-({4-[(2-oxopyridin-1-yl)methyl]phenyl}methyl)pyrazole-4-carboxamide]", "values": [{"measurement": "inhibition at 40 µM", "setting": "[3]", "value": 4, "unit": "%"}]}, {"smiles": "COCc1nn(Cc2ccc(Cn3cc(F)ccc3=O)cc2)cc1C(=O)NCc1c(F)ccc(OC)c1F", "note": "[Example 108, N-[(2,6-difluoro-3-methoxyphenyl)methyl]-1-({4-[(5-fluoro-2-oxopyridin-1-yl)methyl]phenyl}methyl)-3-(methoxymethyl)pyrazole-4-carboxamide]", "values": [{"measurement": "IC50", "setting": "[1]", "value": 5.5, "unit": "nM"}, {"measurement": "IC50", "setting": "[2]", "value": "> 10000", "unit": "nM"}]}, {"smiles": "COCc1nn(Cc2ccc(Cn3ccccc3=O)cc2)cc1C(=O)NCc1cccc(O)c1F", "note": "[Example 129, N-[(2-fluoro-3-hydroxyphenyl)methyl]-3-(methoxymethyl)-1-({4-[(2-oxopyridin-1-yl)methyl]phenyl}methyl)pyrazole-4-carboxamide]", "values": [{"measurement": "IC50", "setting": "[1]", "value": 437, "unit": "nM"}, {"measurement": "inhibition at 40 µM", "setting": "[3]", "value": 0, "unit": "%"}]}]}
